How the values were obtained:
MMP-1 = biological target: T1, MMP-1 (Homo sapiens, UniProt P03956); experiment: In vitro metalloprotease inhibition, fluorogenic MCA peptide substrate; assay type: biochemical; details: recombinant human enzyme, APMA-activated, room temperature, pH 7.5
T1 construct: host or cells: transfected HT-1080 cells
T1 sequence (P03956 100-469): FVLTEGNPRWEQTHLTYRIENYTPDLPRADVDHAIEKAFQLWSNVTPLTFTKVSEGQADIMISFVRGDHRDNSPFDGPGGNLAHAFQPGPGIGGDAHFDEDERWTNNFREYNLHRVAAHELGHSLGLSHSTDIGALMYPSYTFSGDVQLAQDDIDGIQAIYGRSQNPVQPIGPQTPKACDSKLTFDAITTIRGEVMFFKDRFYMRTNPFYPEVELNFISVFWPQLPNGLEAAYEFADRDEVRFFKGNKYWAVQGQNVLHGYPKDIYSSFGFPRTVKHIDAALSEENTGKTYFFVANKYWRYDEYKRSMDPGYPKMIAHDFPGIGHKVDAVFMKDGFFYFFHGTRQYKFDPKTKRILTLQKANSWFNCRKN

MMP-13 = biological target: T2, MMP-13 (Homo sapiens, UniProt P45452); experiment: as above; assay type: biochemical; details: recombinant human enzyme, APMA-activated, room temperature, pH 7.5; read-out: MMP-13 IC50
T2 construct: made in house; host or cells: baculovirus / insect cells

Row | IC50 (MMP-1) [nM] | IC50 (MMP-13) [nM] | SMILES
1 | 300 | 15 | COc1ccc(S(=O)(=O)CC(NC(C)=O)C(=O)NO)cc1 (centres unmarked) [Example 1, N-Hydroxy-3-[(4-methoxyphenyl)sulfonyl]-2-[(methylcarbonyl)amino]propanamide]
2 | 1500 | 15 | COc1ccc(S(=O)(=O)CC(NC(=O)NC(C)(C)C)C(=O)NO)cc1 (centres unmarked) [Example 2, 2-[[[(1,1-Dimethylethyl)amino]carbonyl]amino]-N-hydroxy-3-[(4-methoxyphenyl)sulfonyl]propanamide]
3 | 40 | < 1 | COc1ccc(S(=O)(=O)CC(NC(=O)CNC(=O)OCc2ccccc2)C(=O)NO)cc1 (centres unmarked) [Example 6, Phenylmethyl-[2-[[2-(hydroxyamino)-2-oxo-1-[[[4-methoxyphenyl]sulfonyl]methyl]ethyl]amino]-2-oxoethyl]carbamate]
4 | 770 | 1.1 | CC(=O)N[C@@H](CS(=O)(=O)c1ccc(Oc2ccccc2)cc1)C(=O)NO [Example 9g, N^2-Acetyl-N^1-hydroxyl-3-[(4-phenoxyphenyl)sulphonyl]alaninamide]
5 | 1600 | 2.7 | CC(C)(C)C(=O)NC(CS(=O)(=O)c1ccc(Oc2ccccc2)cc1)C(=O)NO (centres unmarked) [Example 10d]
6 |  | 6 | CCCCC(=O)NC(CS(=O)(=O)c1ccc(Sc2ccccc2)cc1)C(=O)NO (centres unmarked) [Example 11g, N-[1-[(Hydroxyamino)carbonyl]-2-[[4-(phenylthio)phenyl]sulfonyl]ethyl]pentanamide]
7 | > 10000 | 3.7 | O=C(NC(CS(=O)(=O)c1ccc(Sc2ccccc2)cc1)C(=O)NO)OCc1ccccc1 (centres unmarked) [Example 14c, Phenylmethyl-[2-(hydroxyamino)-2-oxo-1-[[[4-(phenylthio)-phenyl]sulfonyl]methyl]ethyl]carbamate]
8 | > 10000 | 0.8 | O=C(CNC(=O)OCc1ccccc1)NC(CS(=O)(=O)c1ccc(Sc2ccccc2)cc1)C(=O)NO (centres unmarked) [Example 16c, Phenylmethyl-[2-[[2-(hydroxyamino)-2-oxo-1-[[[4-(phenylthio)-phenyl]sulfonyl]methyl]ethyl]amino]-2-oxoethyl]carbamate]
9 | 600 | 0.4 | Cc1ccc(S(=O)(=O)NC(CS(=O)(=O)c2ccc(Sc3ccccc3)cc2)C(=O)NO)cc1 (centres unmarked) [Example 17c]
10 | > 10000 | 24 | NC(CS(=O)(=O)c1ccc(Sc2ccccc2)cc1)C(=O)NO (centres unmarked) [Example 18a]
11 | > 10000 | 0.8 | C[C@H](NC(=O)OCc1ccccc1)C(=O)NC(CS(=O)(=O)c1ccc(Sc2ccccc2)cc1)C(=O)NO (some centres unmarked) [Example 19a]
12 | > 10000 | 4 | CC(C)(C)NC(=O)NC(CS(=O)(=O)c1ccc(Sc2ccccc2)cc1)C(=O)NO (centres unmarked) [Example 20b]
13 | 300 | 15 | COc1ccc(S(=O)(=O)CC(NS(C)(=O)=O)C(=O)NO)cc1 (centres unmarked) [Example 21]
14 | > 10000 | 14 | O=C(NC(CS(=O)(=O)c1ccc(Sc2ccccc2)cc1)C(=O)NO)c1ccco1 (centres unmarked) [Example 27]
15 |  | 5 | CC(C)(C)NC(=O)NC(CS(=O)(=O)c1ccc(Sc2ccccc2)cc1)C(=O)NO (centres unmarked) [Example 45]
16 |  | 160 | CC(CS(=O)(=O)c1ccc(Oc2ccccc2)cc1)(NC(=O)CN1CCCC1)C(=O)NO (centres unmarked) [Example 49]
17 |  | 24 | CN(C)C(C)(CS(=O)(=O)c1ccc(Oc2ccccc2)cc1)C(=O)NO (centres unmarked) [Example 52]
18 |  | 0.3 | CC(CS(=O)(=O)c1ccc(Oc2ccccc2)cc1)(NCc1ccccc1)C(=O)NO (centres unmarked) [Example 56]
19 |  | 580 | CC(=O)NC(C)(CS(=O)(=O)c1ccc(Sc2ccccc2)cc1)C(=O)NO (centres unmarked) [Example 57]
20 |  | 161 | O=C(NC(CS(=O)(=O)c1ccc(Oc2ccccc2)cc1)(C(=O)NO)c1ccccc1)c1ccccc1 (centres unmarked) [Example 65]
21 |  | 1.1 | CC(CS(=O)(=O)c1ccc(Oc2ccccc2)cc1)(NCc1ccc2c(c1)OCO2)C(=O)NO (centres unmarked) [Example 66]
22 |  | 1.4 | CC(CS(=O)(=O)c1ccc(Oc2ccccc2)cc1)(NCc1ccc2ccccc2c1)C(=O)NO (centres unmarked) [Example 68]

Source: US6583299B1, “α-amino-β-sulfonyl hydroxamic acid compounds” (priority 1999, dated 2003)
